Experimental data reported in US20250197846A1, “TAGMENTATION WORKFLOW” (ILLUMINA, INC., priority 2022, published 2025).
Entries after “also recorded” stand apart in the source; their conditions may differ.

Tested on: Tn5 transposase enzyme bound to tagmented DNA (tagmented DNA complex), Mg^2+ cofactor
Experiment: Removal of Tn5 transposase from tagmented DNA complex after tagmentation with Mg2+ cofactor (library yield and insert size profile after PCR)
Excerpt: As such Mg^2+ was the divalent cation cofactor.
In the workflow for experiment A: DNA was first tagmented, appending the transferred strand of the adaptor to the 5′ ends of the tagmented DNA, and then treated with water (not sodium dodecyl sulfate (SDS)), thus keeping the Tn5 bound to the tagmented DNA. The tagmented DNA complex was washed and subjected to PCR (including high temperature heating which may dissociate the Tn5) to append adaptor sequences to the 3′ ends of the tagmented DNA.
In the workflow for experiment, B: DNA was first tagmented, appending the transferred strand of the adaptor to the 5′ ends of the tagmented DNA, and then was treated with SDS to denature the Tn5 enzyme, thus dissociating it from the tagmented DNA complex. The SDS was washed away and the tagmented DNA fragments were exposed to PCR to append adaptor sequences to the 3′ ends of the tagmented DNA.
Some of the supernatant was analyzed using a TapeStation. The size profile and yield of the tagmented DNA fragments from experiments A and B were measured using the TapeStation.
As such, Mg^2+ was the divalent cation cofactor.
In the workflow for experiment A: DNA was first tagmented, appending the transferred strand of the adaptor to the 5′ ends of the tagmented DNA. Tn5 was removed by adding 1% SDS and incubating for 5 minutes at 25° C.
In the workflow for experiment B: DNA was first tagmented, appending the transferred strand of the adaptor to the 5′ ends of the tagmented DNA. […] In experiment B, the transposase removal fluid included 100 mM Tris-HCl, pH 8.6, 100 mM NaCl, and 0.6 mM EDTA.
In the workflow for experiments A and B: DNA was first tagmented, appending the transferred strand of the adaptor to the 5′ ends of the tagmented DNA. Tn5 was removed by adding 1% SDS and incubating for 5 minutes at 25° C.
In the workflow for experiments C and D: DNA was first tagmented, appending the transferred strand of the adaptor to the 5′ ends of the tagmented DNA.
For each of these experiments, the tagmentation buffer included water, 4% DMF, 2 mM magnesium acetate, and 4 mM tris acetate salt, pH 7.6. As such Mg^2+ was the divalent cation cofactor.
In the workflow for experiment B: DNA was first tagmented, appending the transferred strand of the adaptor to the 5′ ends of the tagmented DNA. […] In experiment B, the transposase removal fluid included 140 mM Tris, pH 8.8, 100 mM KCl, and 1.8 mM EDTA. […] The sample was processed under Extension-Ligation and PCR-cycling conditions with a ligase, non-strand displacing polymerase and Q5 polymerase in a buffer base with 2.4 mM Magnesium.
In the workflow for experiment A: DNA was first tagmented using the Mg^2+ tagmentation buffer described in this example, appending the transferred strand of the adaptor to the 5′ ends of the tagmented DNA. Tn5 was removed by adding 1% SDS and incubating for 5 minutes at 25° C.
In the workflow for experiment D: DNA was first tagmented using the Mg^2+ tagmentation buffer described in this example, appending the transferred strand of the adaptor to the 5′ ends of the tagmented DNA.
In the workflow for experiment A: DNA was first tagmented, appending the transferred strand of the adaptor to the 5′ ends of the tagmented DNA. […] In experiment A, the transposase removal fluid included 500 mM Tris, pH 8.6, 100 mM NaCl, and 15 mM 2-hydroxy-4-oxo-4-thiophen-2-yl-but-2-enoic acid integrase inhibitor. […]

SMILES	Dissociation of Tn5 enzyme from tagmented DNA complex (yield and insert size profile, FIG. 5) (Example 2, supernatant discarded, 100 mM Tris-HCl pH 8.6, 100 mM NaCl, 0.6 mM EDTA, 1 minute at 60° C., compared with 1% SDS)	Dissociation of Tn5 from tagmented DNA complex (size profile and yield, FIG. 6) (Example 3, applied directly without removing supernatant, 100 mM Tris-HCl pH 8.6, 100 mM NaCl, 6 mM EDTA, 1 minute at 60° C.)	Dissociation of Tn5 from tagmented DNA complex (size profile and yield, FIG. 7) (Example 4, 140 mM Tris pH 8.8, 100 mM KCl, 1.8 mM EDTA, 1 minute at 60° C., extension-ligation and PCR added directly with 2.4 mM magnesium)	Tn5 removal from the tagmented product complex (yield and insert size profile, FIG. 4) (Example 1, SDS treatment versus water and high temperature heating of PCR, Mg2+ cofactor, sulfate)
O=C(O)CN(CCN(CC(=O)O)CC(=O)O)CC(=O)O [EDTA, ethylenediaminetetraacetic acid]	sufficient to replace SDS as a reagent for dissociating the Tn5 enzyme from a tagmented DNA complex	can effectively dissociate Tn5 from the tagmented DNA complex	can dissociate Tn5 from the tagmented DNA complex	
CCCCCCCCCCCCOS(=O)(=O)[O-].[Na+] [SDS, sodium dodecyl sulfate]				more effective than heating alone; also recorded: more effective in removing Tn5 from the tagmented product complex than the high temperature heating used in PCR
